Results: ChEMBL document CHEMBL3785058, “Design and synthesis of novel 3-sulfonylpyrazol-4-amino pyrimidines as potent anaplastic lymphoma kinase (ALK) inhibitors” (Bioorg Med Chem Lett, 2016)
One block for each compound: values may come before it. Activity calls are given as the source filed them. No cut-off for these calls is given here.

Legend:
[1] = Antiproliferative activity against human KARPAS299 cells after 96 hrs by CellTiter-Glo assay; assay type: functional, cell-based; conditions: KARPAS-299, 96 h
[2] = target: ALK tyrosine kinase receptor (Homo sapiens, UniProt Q9UM73); assay: Inhibition of recombinant human wild type ALK using tyrosine kinase substrate-biotin after 30 mins by HTRF assay
[3] = target: ALK tyrosine kinase receptor (Homo sapiens, UniProt Q9UM73, L1196M); assay: Inhibition of recombinant human ALK L1196M mutant using tyrosine kinase substrate-biotin after 30 mins by HTRF assay
[4] = system: NCI-H2228; assay: Antiproliferative activity against human NCI-H2228 cells after 96 hrs by CellTiter-Glo assay; assay type: functional, cell-based; conditions: NCI-H2228, 96 h
[5] = Cmax in Sprague-Dawley rat at 5 mg/kg, po; assay type: ADME, organism-based; set-up: dose 5 mg/kg, route oral; conditions: in vivo
[6] = system: NCI-H2228; conditions: Homo sapiens
Description: Antitumor activity against human NCI-H2228 cells xenografted in Balb/c nude mouse assessed as tumor growth inhibition at 10 mg/kg, po qd administered for two weeks

[7] = Volume of distribution in Beagle dog at 1 mg/kg, iv; assay type: ADME, organism-based, Canis lupus familiaris; conditions: in vivo
[8] = system: NCI-H2228; conditions: Homo sapiens; remark: listed apart in the source
Description: Antitumor activity against human NCI-H2228 cells xenografted in Balb/c nude mouse assessed as tumor growth inhibition at 30 mg/kg, po qd administered for two weeks measured after 1 week during compound dosing

[9] = system: NCI-H2228; assay: Antitumor activity against human NCI-H2228 cells xenografted in Balb/c nude mouse assessed as tumor growth inhibition at 30 mg/kg, po qd administered for two weeks measured on day 14 post last dose; assay type: functional; conditions: 336 h, read-out: TGI
[10] = Cmax in Balb/c nude mouse at 5 mg/kg, po; assay type: ADME, organism-based; set-up: dose 5 mg/kg, route oral; conditions: in vivo
[11] = AUC(0 to infinity) in Beagle dog at 1 mg/kg, iv; assay type: ADME, organism-based, Canis lupus familiaris; set-up: dose 1 mg/kg, time infinity, route intravenous; conditions: in vivo
[12] = Oral bioavailability in Beagle dog at 3 mg/kg; assay type: ADME, organism-based, Canis lupus familiaris; conditions: in vivo
[13] = Half life in Beagle dog at 1 mg/kg, iv; assay type: ADME, organism-based, Canis lupus familiaris; conditions: in vivo
[14] = Volume of distribution in Balb/c nude mouse at 1 mg/kg, iv; assay type: ADME, organism-based; conditions: in vivo
[15] = Tmax in Sprague-Dawley rat at 5 mg/kg, po; assay type: ADME, organism-based; conditions: in vivo
[16] = system: NCI-H2228; conditions: Homo sapiens; remark: listed apart in the source
Description: Antitumor activity against human NCI-H2228 cells xenografted in Balb/c nude mouse assessed as tumor growth inhibition administered as po qd for two weeks

[17] = Tmax in Beagle dog at 3 mg/kg, po; assay type: ADME, organism-based, Canis lupus familiaris; conditions: in vivo
[18] = Volume of distribution in Sprague-Dawley rat at 1 mg/kg, iv; assay type: ADME, organism-based; conditions: in vivo
[19] = Cmax in Beagle dog at 3 mg/kg, po; assay type: ADME, organism-based, Canis lupus familiaris; set-up: dose 3 mg/kg, route oral; conditions: in vivo
[20] = Ratio of IC50 for human ERG to IC50 for human NCI-H2228 cells
[21] = Clearance in Sprague-Dawley rat at 1 mg/kg, iv; assay type: ADME, organism-based; conditions: in vivo
[22] = Oral bioavailability in Balb/c nude mouse at 5 mg/kg; assay type: ADME, organism-based; conditions: in vivo
[23] = system: Mus musculus; assay: In vivo inhibition of ALK in human KARPAS299 cells xenografted in mouse assessed as suppression of STAT3 phosphorylation at 20 mg/kg measured after 8 hrs; assay type: functional; conditions: KARPAS-299, 8 h
[24] = AUC(0 to infinity) in Beagle dog at 3 mg/kg, po; assay type: ADME, organism-based, Canis lupus familiaris; set-up: dose 3 mg/kg, route oral, time infinity; conditions: in vivo
[25] = Clearance in Beagle dog at 1 mg/kg, iv; assay type: ADME, organism-based, Canis lupus familiaris; conditions: in vivo
[26] = Clearance in Balb/c nude mouse at 1 mg/kg, iv; assay type: ADME, organism-based; conditions: in vivo
[27] = Tmax in Balb/c nude mouse at 5 mg/kg, po; assay type: ADME, organism-based; conditions: in vivo
[28] = Half life in Sprague-Dawley rat at 1 mg/kg, iv; assay type: ADME, organism-based; conditions: in vivo
[29] = AUC(0 to infinity) in Sprague-Dawley rat at 5 mg/kg, po; assay type: ADME, organism-based; set-up: dose 5 mg/kg, route oral, time infinity; conditions: in vivo
[30] = system: Mus musculus; assay: Toxicity in Balb/c nude mouse xenografted with human NCI-H2228 cells assessed as change in body weight at 30 mg/kg, po qd administered for two weeks; assay type: organism-based; conditions: in vivo
[31] = AUC(0 to infinity) in Sprague-Dawley rat at 1 mg/kg, iv; assay type: ADME, organism-based; set-up: dose 1 mg/kg, route intravenous, time infinity; conditions: in vivo
[32] = Half life in Balb/c nude mouse at 1 mg/kg, iv; assay type: ADME, organism-based; conditions: in vivo
[33] = AUC(0 to infinity) in Balb/c nude mouse at 5 mg/kg, po; assay type: ADME, organism-based; set-up: dose 5 mg/kg, time infinity, route oral; conditions: in vivo
[34] = Oral bioavailability in Sprague-Dawley rat at 5 mg/kg; assay type: ADME, organism-based; conditions: in vivo
[35] = system: NCI-H2228; assay: Antitumor activity against human NCI-H2228 cells xenografted in Balb/c nude mouse assessed as tumor growth inhibition at 3 mg/kg, po qd administered for two weeks measured on day 14 post last dose; assay type: functional; conditions: 336 h, read-out: TGI
[36] = AUC(0 to infinity) in Balb/c nude mouse at 1 mg/kg, iv; assay type: ADME, organism-based; set-up: dose 1 mg/kg, route intravenous, time infinity; conditions: in vivo

Sequence of ALK tyrosine kinase receptor (Homo sapiens, UniProt Q9UM73, L1196M) (Q9UM73 19-1620 L1196M limits assumed): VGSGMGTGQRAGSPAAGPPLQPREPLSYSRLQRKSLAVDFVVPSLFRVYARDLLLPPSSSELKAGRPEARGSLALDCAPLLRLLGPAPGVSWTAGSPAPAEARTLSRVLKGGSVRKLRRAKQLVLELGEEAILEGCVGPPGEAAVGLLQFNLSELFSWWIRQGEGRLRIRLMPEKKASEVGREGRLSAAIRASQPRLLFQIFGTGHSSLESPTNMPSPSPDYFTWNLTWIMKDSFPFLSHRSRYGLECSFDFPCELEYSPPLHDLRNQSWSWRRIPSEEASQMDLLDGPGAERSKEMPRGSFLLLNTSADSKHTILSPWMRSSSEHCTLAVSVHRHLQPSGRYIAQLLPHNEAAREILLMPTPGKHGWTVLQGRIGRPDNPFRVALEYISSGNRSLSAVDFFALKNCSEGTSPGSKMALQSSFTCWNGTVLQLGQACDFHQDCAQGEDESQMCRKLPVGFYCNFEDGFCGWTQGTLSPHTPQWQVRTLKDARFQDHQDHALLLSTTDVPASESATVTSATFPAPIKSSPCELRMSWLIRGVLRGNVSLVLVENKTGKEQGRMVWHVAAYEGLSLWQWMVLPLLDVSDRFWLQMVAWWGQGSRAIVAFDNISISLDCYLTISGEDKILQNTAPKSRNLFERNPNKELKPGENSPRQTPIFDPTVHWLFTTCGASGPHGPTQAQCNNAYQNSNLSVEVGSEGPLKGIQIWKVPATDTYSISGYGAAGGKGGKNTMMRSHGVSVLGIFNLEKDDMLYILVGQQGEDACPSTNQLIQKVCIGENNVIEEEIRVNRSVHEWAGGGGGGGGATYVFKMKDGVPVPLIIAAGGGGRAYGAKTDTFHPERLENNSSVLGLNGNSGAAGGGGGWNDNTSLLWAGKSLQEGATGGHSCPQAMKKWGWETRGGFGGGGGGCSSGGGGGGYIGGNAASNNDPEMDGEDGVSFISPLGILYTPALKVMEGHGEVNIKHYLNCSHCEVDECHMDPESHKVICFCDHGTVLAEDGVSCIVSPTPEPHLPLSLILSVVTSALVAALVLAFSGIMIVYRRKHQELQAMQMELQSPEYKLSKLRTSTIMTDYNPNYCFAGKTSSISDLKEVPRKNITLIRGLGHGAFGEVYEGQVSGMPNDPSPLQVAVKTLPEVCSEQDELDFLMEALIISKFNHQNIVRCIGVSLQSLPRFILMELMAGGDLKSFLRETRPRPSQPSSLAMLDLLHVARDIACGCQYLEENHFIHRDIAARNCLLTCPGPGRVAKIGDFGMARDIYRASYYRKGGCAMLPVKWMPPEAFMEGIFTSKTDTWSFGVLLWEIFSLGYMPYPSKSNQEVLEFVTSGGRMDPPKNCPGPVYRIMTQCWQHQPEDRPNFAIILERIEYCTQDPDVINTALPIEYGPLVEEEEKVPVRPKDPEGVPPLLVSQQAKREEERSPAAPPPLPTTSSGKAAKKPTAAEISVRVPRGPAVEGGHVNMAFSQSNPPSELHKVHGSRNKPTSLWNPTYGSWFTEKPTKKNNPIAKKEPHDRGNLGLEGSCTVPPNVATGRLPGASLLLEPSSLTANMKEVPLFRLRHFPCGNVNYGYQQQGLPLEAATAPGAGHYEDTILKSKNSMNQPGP
Sequence of ALK tyrosine kinase receptor (Homo sapiens, UniProt Q9UM73) (Q9UM73 whole entry): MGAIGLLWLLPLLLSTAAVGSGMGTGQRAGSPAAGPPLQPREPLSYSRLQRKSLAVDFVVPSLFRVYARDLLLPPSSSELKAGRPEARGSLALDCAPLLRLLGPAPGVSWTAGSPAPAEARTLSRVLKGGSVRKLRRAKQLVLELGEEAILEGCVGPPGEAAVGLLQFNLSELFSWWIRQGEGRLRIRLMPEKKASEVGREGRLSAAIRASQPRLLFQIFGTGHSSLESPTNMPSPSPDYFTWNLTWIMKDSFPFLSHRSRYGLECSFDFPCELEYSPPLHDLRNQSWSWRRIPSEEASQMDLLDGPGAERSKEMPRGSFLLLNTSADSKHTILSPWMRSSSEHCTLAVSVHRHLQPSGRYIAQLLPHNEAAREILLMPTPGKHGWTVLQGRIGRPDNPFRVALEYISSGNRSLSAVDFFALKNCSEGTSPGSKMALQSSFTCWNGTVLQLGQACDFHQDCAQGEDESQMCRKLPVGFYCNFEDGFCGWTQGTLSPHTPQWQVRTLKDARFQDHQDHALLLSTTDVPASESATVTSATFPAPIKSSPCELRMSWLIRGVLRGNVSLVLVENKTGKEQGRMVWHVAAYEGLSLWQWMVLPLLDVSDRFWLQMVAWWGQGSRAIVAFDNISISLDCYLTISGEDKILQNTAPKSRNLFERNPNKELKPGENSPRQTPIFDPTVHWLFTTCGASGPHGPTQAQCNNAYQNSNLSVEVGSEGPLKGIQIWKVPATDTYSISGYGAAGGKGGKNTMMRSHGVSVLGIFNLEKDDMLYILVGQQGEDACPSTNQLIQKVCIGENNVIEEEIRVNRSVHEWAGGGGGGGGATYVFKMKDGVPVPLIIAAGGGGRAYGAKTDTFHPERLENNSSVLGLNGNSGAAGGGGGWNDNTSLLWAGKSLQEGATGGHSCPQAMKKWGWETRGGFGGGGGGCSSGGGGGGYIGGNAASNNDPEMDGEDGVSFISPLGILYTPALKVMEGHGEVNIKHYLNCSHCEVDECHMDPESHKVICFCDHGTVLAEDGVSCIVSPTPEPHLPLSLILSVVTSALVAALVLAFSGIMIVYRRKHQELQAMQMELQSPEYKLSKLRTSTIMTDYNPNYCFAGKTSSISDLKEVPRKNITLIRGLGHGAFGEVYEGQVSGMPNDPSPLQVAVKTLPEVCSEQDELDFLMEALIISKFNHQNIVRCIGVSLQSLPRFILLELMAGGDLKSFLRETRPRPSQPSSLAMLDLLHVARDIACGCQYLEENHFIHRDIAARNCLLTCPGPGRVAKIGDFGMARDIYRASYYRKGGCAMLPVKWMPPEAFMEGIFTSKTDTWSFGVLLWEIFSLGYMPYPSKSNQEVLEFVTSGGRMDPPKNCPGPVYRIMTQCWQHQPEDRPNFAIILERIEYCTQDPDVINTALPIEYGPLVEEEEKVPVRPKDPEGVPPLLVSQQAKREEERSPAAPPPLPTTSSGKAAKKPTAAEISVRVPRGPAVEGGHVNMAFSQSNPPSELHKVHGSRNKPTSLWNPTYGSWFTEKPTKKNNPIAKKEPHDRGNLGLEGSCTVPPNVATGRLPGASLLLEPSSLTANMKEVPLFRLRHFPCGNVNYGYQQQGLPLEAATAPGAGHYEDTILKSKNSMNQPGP

- IC50 [2]: 129 nM
- IC50 [3]: 157 nM
Structure (SMILES): COc1ccc(Cn2cc(Nc3nc(Nc4cc(C)c(C5CCNCC5)cc4OC(C)C)ncc3Cl)c(S(=O)(=O)C(C)C)n2)cc1
- IC50 [1]: > 624 nM

- IC50 [4]: 60 nM
Structure (SMILES): CCN(CC)[C@H]1CC[C@@H](c2cc(OC3CC3)c(Nc3ncc(Cl)c(Nc4cn(C)nc4S(=O)(=O)C(C)C)n3)cc2C)CC1

- IC50 [4]: 272 nM
Structure (SMILES): Cc1cc(Nc2ncc(Cl)c(Nc3cn(C)nc3C#N)n2)c(OC2CC2)cc1C1CCN(C)CC1

- IC50 [4]: 764 nM
- IC50 [2]: 20 nM
- IC50 [3]: 28 nM
Structure (SMILES): CCn1cc(Nc2nc(Nc3cc(C)c(C4CCNCC4)cc3OC(C)C)ncc2Cl)c(S(=O)(=O)C(C)C)n1
- IC50 [1]: 68 nM

- Cmax [5]: 220 ng/mL
- IC50 [4]: 76 nM
- Vd [7]: 6.1 L/kg
- Cmax [10]: 446 ng/mL
- AUC(0-inf) [11]: 1500 ng·h/mL
- bioavailability [12]: 74%
- half-life [13]: 6.4 h
- Vd [14]: 4.6 L/kg
- Tmax [15]: 6 h
- Tmax [17]: 1 h
- Vd [18]: 8.5 L/kg
- Cmax [19]: 355 ng/mL
- clearance [21]: 21.9 mL/min/kg
- bioavailability [22]: 76.5%
- AUC(0-inf) [24]: 3340 ng·h/mL
- clearance [25]: 11.1 mL/min/kg
- clearance [26]: 37.5 mL/min/kg
- Tmax [27]: 0.5 h
- half-life [28]: 4.5 h
- AUC(0-inf) [29]: 3200 ng·h/mL
- AUC(0-inf) [31]: 770 ng·h/mL
- half-life [32]: 1.4 h
- AUC(0-inf) [33]: 1700 ng·h/mL
- bioavailability [34]: 85.3%
- AUC(0-inf) [36]: 445 ng·h/mL
Structure (SMILES): CC(=O)N1CCN([C@H]2CC[C@H](c3cc(OC4CC4)c(Nc4ncc(Cl)c(Nc5cn(C)nc5S(=O)(=O)C(C)C)n4)cc3C)CC2)CC1
- TGI [6]: Active
- TGI [8]: Active
- inhibition in vivo at 30 mg/kg [9]: 140%
- IC50 [1]: 7 nM
- TGI [16]: Dose-dependent effect
- Ratio IC50 [20]: 33
- inhibition in vivo at 20 mg/kg [23]: 79.2%
- Activity [30]: Non-toxic
- inhibition in vivo at 3 mg/kg [35]: 50%

- IC50 [4]: 88 nM
Structure (SMILES): Cc1cc(Nc2ncc(Cl)c(Nc3cn(C)nc3S(=O)(=O)C(C)C)n2)c(OC2CC2)cc1[C@H]1CC[C@H](NC2CC2)CC1
- IC50 [1]: 9 nM
- Ratio IC50 [20]: 23

- IC50 [4]: 54 nM
Structure (SMILES): Cc1cc(Nc2ncc(Cl)c(Nc3cn(C)nc3S(=O)(=O)C(C)C)n2)c(OC2CC2)cc1[C@H]1CC[C@H](NC(C)C)CC1
- IC50 [1]: 5 nM
- Ratio IC50 [20]: 16

- IC50 [4]: 72 nM
- IC50 [2]: 5 nM
- IC50 [3]: 10 nM
Structure (SMILES): Cc1cc(Nc2ncc(Cl)c(Nc3cn(C)nc3S(=O)(=O)C(C)C)n2)c(OC2CC2)cc1[C@H]1CC[C@@H](NC(C)C)CC1
- Ratio IC50 [20]: 15

- IC50 [4]: 210 nM
Structure (SMILES): Cc1cc(Nc2ncc(Cl)c(Nc3cn(C)nc3S(=O)(=O)C(C)C)n2)c(OC2CC2)cc1[C@H]1CC[C@H](NCCN(C)C)CC1

- IC50 [2]: 6680 nM
- IC50 [3]: > 10000 nM
Structure (SMILES): Cc1cc(Nc2ncc(Cl)c(Nc3cn(C)nc3S(=O)(=O)N(C)C)n2)c(OC(C)C)cc1C1CCNCC1

- IC50 [4]: 68 nM
Structure (SMILES): CCN(CC)[C@H]1CC[C@H](c2cc(OC3CC3)c(Nc3ncc(Cl)c(Nc4cn(C)nc4S(=O)(=O)C(C)C)n3)cc2C)CC1

- IC50 [4]: 154 nM
Structure (SMILES): Cc1cc(Nc2ncc(Cl)c(Nc3cn(C)nc3S(=O)(=O)C(C)C)n2)c(OC2CC2)cc1[C@H]1CC[C@H](NC(=O)C2CC2)CC1

- IC50 [4]: > 10000 nM
- IC50 [2]: 753 nM
- IC50 [3]: 3900 nM
Structure (SMILES): Cc1cc(Nc2ncc(Cl)c(Nc3cn(C)nc3S(=O)(=O)C(C)C(C)C)n2)c(OC(C)C)cc1C1CCNCC1 (centres undefined)
- IC50 [1]: > 10000 nM

- IC50 [4]: 69 nM
Structure (SMILES): Cc1cc(Nc2ncc(C)c(Nc3cn(C)nc3S(=O)(=O)C(C)C)n2)c(OC2CC2)cc1C1CCN(C)CC1

- IC50 [4]: 97 nM
- IC50 [2]: 3 nM
- IC50 [3]: 9 nM
Structure (SMILES): Cc1cc(Nc2ncc(Cl)c(Nc3cn(C)nc3S(=O)(=O)C(C)C)n2)c(OC2CC2)cc1C1CCS(=O)(=O)CC1
- Ratio IC50 [20]: 206

- IC50 [4]: 198 nM
Structure (SMILES): Cc1cc(Nc2ncc(Cl)c(Nc3cn(C)nc3S(=O)(=O)C(C)C)n2)c(OC(C)C)cc1C1CCNCC1
- IC50 [1]: 16 nM
